Test results published in patent publication US11225480B2, “Malic enzyme inhibitors” (SUN PHARMA ADVANCED RESEARCH COMPANY LTD, priority 2019, dated 2022).

Tests used:
Type in all cases: biochemical
human ME3 enzyme = biological target: T1, human ME3 enzyme (Homo sapiens, UniProt Q16798); test: ME3 inhibition assay (diaphorase/resazurin coupled fluorescence); details: 10 μM compound concentration; read-out: Malic Enzyme 3 % inhibition (10 μM)
T1 sequence (Q16798 1-604): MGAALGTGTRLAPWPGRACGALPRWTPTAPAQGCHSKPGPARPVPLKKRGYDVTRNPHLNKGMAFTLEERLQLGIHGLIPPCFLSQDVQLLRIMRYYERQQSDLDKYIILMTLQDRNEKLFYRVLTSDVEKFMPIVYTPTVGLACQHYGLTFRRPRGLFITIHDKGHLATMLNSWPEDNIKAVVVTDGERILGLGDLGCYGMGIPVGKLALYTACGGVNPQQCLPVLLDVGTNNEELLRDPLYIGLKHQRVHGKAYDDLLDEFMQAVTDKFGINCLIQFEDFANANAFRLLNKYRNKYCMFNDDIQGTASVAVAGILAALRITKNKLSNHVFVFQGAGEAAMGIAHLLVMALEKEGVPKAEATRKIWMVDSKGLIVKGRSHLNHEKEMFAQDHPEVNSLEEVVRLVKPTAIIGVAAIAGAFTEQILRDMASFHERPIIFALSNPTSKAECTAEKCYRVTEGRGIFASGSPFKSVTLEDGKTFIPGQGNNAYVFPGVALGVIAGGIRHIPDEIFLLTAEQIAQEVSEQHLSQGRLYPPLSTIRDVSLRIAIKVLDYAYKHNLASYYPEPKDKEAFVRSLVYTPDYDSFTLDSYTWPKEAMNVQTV
How it was run: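 Coupled read-out: NADPH made by human ME3 (20 nM stock) drives diaphorase conversion of resazurin (50 μM) to resorufin; buffer 50 mM Tris-HCl pH 7.5, 10 mM MnCl2, 3 mM L-malate.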

human ME2 enzyme = human ME2 enzyme (Homo sapiens, UniProt P23368); test: ME2 inhibition assay (diaphorase/resazurin coupled fluorescence); details: 10 μM compound concentration; read-out: Malic Enzyme 2 % inhibition (10 μM)
Sequence of human ME2 enzyme (P23368 19-584): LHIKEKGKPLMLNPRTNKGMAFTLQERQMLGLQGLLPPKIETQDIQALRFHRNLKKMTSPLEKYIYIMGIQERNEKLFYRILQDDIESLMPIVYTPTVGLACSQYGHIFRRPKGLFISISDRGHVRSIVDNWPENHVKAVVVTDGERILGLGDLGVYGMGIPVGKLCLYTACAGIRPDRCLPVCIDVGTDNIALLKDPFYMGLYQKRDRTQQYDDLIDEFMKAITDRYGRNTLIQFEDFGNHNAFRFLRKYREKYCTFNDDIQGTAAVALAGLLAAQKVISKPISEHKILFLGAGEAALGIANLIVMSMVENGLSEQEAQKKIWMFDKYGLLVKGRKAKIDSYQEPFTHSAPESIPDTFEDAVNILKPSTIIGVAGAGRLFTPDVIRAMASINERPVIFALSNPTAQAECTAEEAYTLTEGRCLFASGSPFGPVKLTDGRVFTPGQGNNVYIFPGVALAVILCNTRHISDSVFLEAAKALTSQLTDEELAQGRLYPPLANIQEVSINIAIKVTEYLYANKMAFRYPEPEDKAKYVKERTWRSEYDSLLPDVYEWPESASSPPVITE
Procedure: ME2 catalyzes the oxidative decarboxylation of malate to pyruvate with conversion of the co-factor β-NAD+ to β-NADH. In the fluorescence assay, a coupled reaction is set up where in an enzyme, Diaphorase, utilizes NADH generated by ME2, to convert the dye resazurin to a fluorescent molecule resorufin. Resorufin has a characteristic fluorescence with excitation/emission at 540/600 nm (SLAS Discov., 2017 April 1:2472555217706649).
The enzyme activity inhibition assay is set up in a 200 μL final reaction volume in a 96-well plate. As per the experimental design, 2 μL of the compounds at 100× the desired concentration (10 μM) in DMSO were added to the respective wells with 178 μL of assay buffer (50 mM Tris-HCl pH 7.5, 10 mM MnCl2, 7 mM L-malate, 50 μM Resazurin and 0.025 mg/ml Diapharose). The 96-well plate was incubated on a plate shaker at room temperature for 15 minutes protected from light. The well contents were gently mixed by adding 10 μL of 60 nM human ME2 enzyme to the wells and the plate was incubated on a shaker at room temperature for 5 minutes protected from light. Suitable ‘enzyme only’ and ‘no enzyme’ controls were included in the experiment. The enzymatic reaction was started by adding 10 μL of 2 mM β-NAD+. The reaction was gently mixed and the plate was initially left on a shaker at room temperature for −7 minutes protected from light. Later, the plate was incubated without shaking at room temperature for 2 hours. At the end of 2 hours, the fluorescence of the wells was measured at excitation 540 nm and emission 600 nm. The % enzyme activity of the compounds is obtained by normalizing the data with enzyme only (100%) and no enzyme controls (0%) using GraphPad Prism software 7.04.

human ME1 enzyme = biological target: T2, human ME1 enzyme (Homo sapiens, UniProt P48163); test: ME1 inhibition assay (diaphorase/resazurin coupled fluorescence); details: 10 μM compound concentration; read-out: Malic Enzyme 1 % inhibition (10 μM)
T2 sequence (P48163 1-572): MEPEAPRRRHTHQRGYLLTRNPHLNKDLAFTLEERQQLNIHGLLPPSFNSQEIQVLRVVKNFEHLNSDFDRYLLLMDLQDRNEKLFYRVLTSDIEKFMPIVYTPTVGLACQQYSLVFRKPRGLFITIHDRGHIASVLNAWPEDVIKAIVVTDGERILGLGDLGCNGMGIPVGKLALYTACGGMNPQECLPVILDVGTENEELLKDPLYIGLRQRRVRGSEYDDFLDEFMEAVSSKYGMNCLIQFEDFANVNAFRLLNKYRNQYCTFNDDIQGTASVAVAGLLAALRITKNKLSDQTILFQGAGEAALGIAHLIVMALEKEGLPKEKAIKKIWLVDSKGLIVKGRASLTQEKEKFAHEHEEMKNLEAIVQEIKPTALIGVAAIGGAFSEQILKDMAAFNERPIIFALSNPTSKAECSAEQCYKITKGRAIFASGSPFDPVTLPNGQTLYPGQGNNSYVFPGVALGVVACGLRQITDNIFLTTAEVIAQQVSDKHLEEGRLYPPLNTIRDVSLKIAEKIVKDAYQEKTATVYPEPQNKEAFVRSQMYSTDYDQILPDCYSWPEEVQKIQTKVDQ
How it was run: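 Compounds at 10 μM preincubated 15 min in 50 mM Tris-HCl pH 7.5, 10 mM MnCl2, 2 mM L-malate, 10 μM resazurin, 0.01 mg/ml diaphorase, then human ME1 added for 5 min; reaction started with NADP+ and run 2 h at room temperature. Resorufin fluorescence (ex 540/em 600 nm) normalized to enzyme-only (100%) and no-enzyme (0%) controls.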

## Cc1cc(N2CCN(C(=O)Cc3ccccc3)CC2)ccc1O [I.52, 1-[4-(4-Hydroxy-3-methyl-phenyl)-piperazin-1-yl]-2-phenyl-ethanone]
Human ME3 enzyme
  inhibition at 10 µM: > 90%
Human ME2 enzyme
  inhibition at 10 µM: > 90%
Human ME1 enzyme
  inhibition at 10 µM: > 90%

## O=C(CCCc1ccccc1)N1CCN(c2ccc(O)cn2)CC1 [I.65, 1-[4-(5-Hydroxy-pyridin-2-yl)-piperazin-1-yl]-4-phenylbutan-1-one]
Human ME3 enzyme
  inhibition at 10 µM: > 90%
Human ME2 enzyme
  inhibition at 10 µM: 70 to 89%
Human ME1 enzyme
  inhibition at 10 µM: 70 to 89%

## O=C(O)c1cccc(-c2cc(C(=O)N3CCN(c4ccc(O)cc4)CC3)cc(N3CCOCC3)n2)c1 [I.41, 3-[4-[4-(4-Hydroxy-phenyl)-piperazine-1-carbonyl]-6-morpholino-2-pyridyl]-benzoic acid]
Human ME3 enzyme
  inhibition at 10 µM: > 90%
Human ME2 enzyme
  inhibition at 10 µM: > 90%
Human ME1 enzyme
  inhibition at 10 µM: > 90%

## O=C(CC1CC1)N1CCN(c2ccc(O)cn2)CC1 [I.137, 2-Cyclo-propyl-1-[4-(5-hydroxy-2-pyridyl)-piperazin-1-yl]ethanone]
Human ME3 enzyme
  inhibition at 10 µM: > 90%
Human ME2 enzyme
  inhibition at 10 µM: > 90%
Human ME1 enzyme
  inhibition at 10 µM: > 90%

## O=C(c1c[nH]c2ncccc12)N1CCN(c2ccc(O)cn2)CC1 [I.63, [4-(5-Hydroxy-pyridin-2-yl)-piperazin-1-yl]-(1H-pyrrolo[2,3-b]pyridin-3-yl)-methanone]
Human ME3 enzyme
  inhibition at 10 µM: > 90%
Human ME2 enzyme
  inhibition at 10 µM: 70 to 89%
Human ME1 enzyme
  inhibition at 10 µM: 70 to 89%

## O=C(CCc1cc2ccccc2s1)N1CCN(c2ccc(O)cn2)CC1 [I.122, 3-Benzo[b]-thiophen-2-yl-1-[4-(5-hydroxy-pyridin-2-yl)-piperazin-1-yl]-propan-1-one]
Human ME3 enzyme
  inhibition at 10 µM: > 90%
Human ME2 enzyme
  inhibition at 10 µM: > 90%
Human ME1 enzyme
  inhibition at 10 µM: > 90%

## O=C(c1c[nH]c2ccccc2c1=O)N1CCN(c2ccc(O)cc2)CC1 [I.47, 3-[4-(4-Hydroxy-phenyl)-piperazine-1-carbonyl]-1H-quinolin-4-one]
Human ME3 enzyme
  inhibition at 10 µM: > 90%
Human ME2 enzyme
  inhibition at 10 µM: > 90%
Human ME1 enzyme
  inhibition at 10 µM: > 90%

## O=C(CC12CC3CC(CC(C3)C1)C2)N1CCN(c2ccc(O)cn2)CC1 [I.55, 2-(1-adamantyl)-1-[4-(5-hydroxy-2-pyridyl)piperazin-1-yl]ethanone]
Human ME3 enzyme
  inhibition at 10 µM: > 90%
Human ME2 enzyme
  inhibition at 10 µM: 70 to 89%
Human ME1 enzyme
  inhibition at 10 µM: > 90%

## O=C(CCc1ccc(Cl)cc1)N1CCN(c2ccc(O)cn2)CC1 [I.82, 3-(4-Chloro-phenyl)-1-[4-(5-hydroxy-pyridin-2-yl)-piperazin-1-yl]-propan-1-one]
Human ME3 enzyme
  inhibition at 10 µM: > 90%
Human ME2 enzyme
  inhibition at 10 µM: > 90%
Human ME1 enzyme
  inhibition at 10 µM: > 90%

## O=C(C1Cc2ccccc2C1)N1CCN(c2ccc(O)cn2)CC1 [I.67, [4-(5-Hydroxy-pyridin-2-yl)-piperazin-1-yl]-indan-2-yl-methanone]
Human ME3 enzyme
  inhibition at 10 µM: > 90%
Human ME2 enzyme
  inhibition at 10 µM: 50 to 69%
Human ME1 enzyme
  inhibition at 10 µM: > 90%

## Cc1cccc(C)c1CCC(=O)N1CCN(c2ccc(O)cn2)CC1 [I.147, 3-(2,6-Dimethyl-phenyl)-1-[4-(5-hydroxy-pyridin-2-yl)-piperazin-1-yl]-propan-1-one]
Human ME3 enzyme
  inhibition at 10 µM: > 90%
Human ME2 enzyme
  inhibition at 10 µM: > 90%
Human ME1 enzyme
  inhibition at 10 µM: > 90%

## O=C(Cc1c[nH]c2c(F)cc(F)cc12)N1CCN(c2ccc(O)cn2)CC1 [I.167, 2-(5,7-Difluoro-1H-indol-3-yl)-1-[4-(5-hydroxy-pyridin-2-yl)-piperazin-1-yl]-ethanone]
Human ME3 enzyme
  inhibition at 10 µM: > 90%
Human ME2 enzyme
  inhibition at 10 µM: > 90%
Human ME1 enzyme
  inhibition at 10 µM: > 90%

## O=C(CCc1ccccc1)N1CCN(c2ccc(O)cn2)CC1 [I.45, 1-[4-(5-hydroxy-pyridin-2-yl)-piperazin-1-yl]-3-phenyl-propan-1-one]
Human ME3 enzyme
  inhibition at 10 µM: > 90%
Human ME2 enzyme
  inhibition at 10 µM: 70 to 89%
Human ME1 enzyme
  inhibition at 10 µM: > 90%

## O=C(Cc1ccccc1)N1CCN(c2ccc(O)cc2F)CC1 [I.11, 1-[4-(2-Fluoro-4-hydroxy-phenyl)-piperazin-1-yl]-2-phenyl-ethanone]
Human ME3 enzyme
  inhibition at 10 µM: > 90%
Human ME2 enzyme
  inhibition at 10 µM: 70 to 89%
Human ME1 enzyme
  inhibition at 10 µM: > 90%

## O=C(c1c2ccccc2nc2ccccc12)N1CCN(c2ccc(O)cn2)CC1 [I.44, Acridin-9-yl-[4-(5-hydroxy-pyridin-2-yl)-piperazin-1-yl]-methanone]
Human ME3 enzyme
  inhibition at 10 µM: > 90%
Human ME2 enzyme
  inhibition at 10 µM: 50 to 69%
Human ME1 enzyme
  inhibition at 10 µM: > 90%

## O=C(Cc1ccc(F)cc1F)N1CCN(c2ccc(O)cc2)CC1 [I.149, 2-(2,4-difluoro-phenyl)-1-[4-(4-hydroxy-phenyl)-piperazin-1-yl]-ethanone]
Human ME3 enzyme
  inhibition at 10 µM: > 90%
Human ME2 enzyme
  inhibition at 10 µM: > 90%
Human ME1 enzyme
  inhibition at 10 µM: > 90%

## O=C(c1cn(CC2CC2)c2ccccc2c1=O)N1CCN(c2ccc(O)cn2)CC1 [I.59, 1-(Cyclo-propyl-methyl)-3-[4-(5-hydroxy-2-pyridyl)-piperazine-1-carbonyl]-quinolin-4-one]
Human ME3 enzyme
  inhibition at 10 µM: > 90%
Human ME2 enzyme
  inhibition at 10 µM: 70 to 89%
Human ME1 enzyme
  inhibition at 10 µM: 70 to 89%

## COc1ccc(C(CC(=O)N2CCN(c3ccc(O)cn3)CC2)c2ccc(OC)cc2)cc1 [I.93, 1-[4-(5-Hydroxy-2-pyridyl)-piperazin-1-yl]-3,3-bis(4-methoxy-phenyl)-propan-1-one]
Human ME3 enzyme
  inhibition at 10 µM: > 90%
Human ME2 enzyme
  inhibition at 10 µM: 70 to 89%
Human ME1 enzyme
  inhibition at 10 µM: 70 to 89%

## O=C(C(=O)N1CCN(c2ccc(O)cn2)CC1)c1c[nH]c2ccc(F)cc12 [I.168, 1-(5-Fluoro-1H-indol-3-yl)-2-[4-(5-hydroxy-pyridin-2-yl)-piperazin-1-yl]-ethane-1,2-dione]
Human ME3 enzyme
  inhibition at 10 µM: > 90%
Human ME2 enzyme
  inhibition at 10 µM: > 90%
Human ME1 enzyme
  inhibition at 10 µM: > 90%

## O=C(Cc1c[nH]c2ccccc12)N1CCN(c2ccc(O)cn2)CC1 [I.62, 1-[4-(5-Hydroxy-pyridin-2-yl)-piperazin-1-yl]-2-(1H-indol-3-yl)-ethanone]
Human ME3 enzyme
  inhibition at 10 µM: > 90%
Human ME2 enzyme
  inhibition at 10 µM: 70 to 89%
Human ME1 enzyme
  inhibition at 10 µM: 70 to 89%

## O=C(CCc1c[nH]c2ccccc12)N1CCN(c2ccc(O)cn2)CC1 [I.51, 1-[4-(5-Hydroxy-pyridin-2-yl)-piperazin-1-yl]-3-(1H-indol-3-yl)-propan-1-one]
Human ME3 enzyme
  inhibition at 10 µM: > 90%
Human ME2 enzyme
  inhibition at 10 µM: 70 to 89%
Human ME1 enzyme
  inhibition at 10 µM: 70 to 89%

## O=C(CC=C(c1ccccc1)c1ccccc1)N1CCN(c2ccc(O)cn2)CC1 [I.94, 1-[4-(5-Hydroxy-2-pyridyl)-piperazin-1-yl]-4,4-diphenyl-but-3-en-1-one]
Human ME3 enzyme
  inhibition at 10 µM: > 90%
Human ME2 enzyme
  inhibition at 10 µM: 70 to 89%
Human ME1 enzyme
  inhibition at 10 µM: 70 to 89%

## O=C(c1c2ccccc2cc2ccccc12)N1CCN(c2ccc(O)cc2)CC1 [I.21, Anthracen-9-yl-[4-(4-hydroxy-phenyl)-piperazin-1-yl]-methanone]
Human ME3 enzyme
  inhibition at 10 µM: > 90%
Human ME2 enzyme
  inhibition at 10 µM: > 90%
Human ME1 enzyme
  inhibition at 10 µM: > 90%
